Several values for one entry are separate records, joined by “and”; a condition that tells them apart may be missing. Equal entries are not always repeated.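 Compound exposure: 48 hours, 5 concentrations, 96-well plates. Here, GI50 denotes the concentration required for 50% inhibition of growth. At the TGI there is no net growth.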
Columns and labels:
Experiment in all cases: inhibition of tumour cell growth, NCI panel, 48 h
DMS 114 small cell lung = test system: DMS 114 small cell lung
HOP-18 NSCLC = test system: HOP-18 NSCLC
KM20L2 colon = test system: KM20L2 colon
XF 498 CNS = test system: XF 498 CNS
T-47D breast = test system: T-47D breast
NCI/ADR-RES ovarian = test system: NCI/ADR-RES ovarian
MCF7 breast = test system: MCF7 breast
MDA-MB-435 = test system: MDA-MB-435

SMILES	TGI (DMS 114 small cell lung) [µM]	TGI (KM20L2 colon) [µM]	GI50 (T-47D breast) [µM]	TGI (T-47D breast)	GI50 (NCI/ADR-RES ovarian) [µM]	TGI (NCI/ADR-RES ovarian)	GI50 (MCF7 breast)	TGI (MCF7 breast)	GI50 (MDA-MB-435) [µM]	TGI (MDA-MB-435)	other results
COc1cc(Br)c(C=Nc2cccc3ccc(OS(=O)(=O)c4cccc([N+](=O)[O-])c4)cc23)cc1OC	> 100										TGI (HOP-18 NSCLC): > 100 µM
CCOC(=O)c1cc(/C=C/C(C)=C/C(=O)OC)n(C)c1C		> 100									TGI (XF 498 CNS): > 100 µM
O=C([CH-]C(=O)C(F)(F)F)c1ccccc1.O=C([CH-]C(=O)C(F)(F)F)c1ccccc1.O=C([CH-]C(=O)C(F)(F)F)c1ccccc1.O=C([CH-]C(=O)C(F)(F)F)c1ccccc1.[Eu+3].c1ccncc1		> 100									GI50 (KM20L2 colon): 26.7 µM
Cc1cc(N/N=C/c2nc(-c3ccc(Cl)cc3)oc2C)c2cc(Cl)ccc2n1			1.69	3.36 µM	2.19	5.63 µM	1.35 µM	2.97 µM	1.68	3.44 µM	
CCOC(=O)CC1NC(=O)CS1 (stereo not drawn)	57.8	> 100									TGI (HOP-18 NSCLC): > 100 µM
CC1(C)C2CCC3(C2)CS(=O)(=O)N2OC231 (stereo not drawn)	26.8	30.6									TGI (HOP-18 NSCLC): 32.1 µM
Cc1ccc(S(=O)(=O)N=Nc2c(O)[nH]c3c(Cl)cc(Cl)cc23)cc1						> 100 µM		> 100 µM		> 100 µM	
C[C-](O)O.O/C(=C\[C-](O)c1ccccc1)c1ccccc1.O/C(=C\[C-](O)c1ccccc1)c1ccccc1.[Nd+3] (stereo not drawn)	57	21									GI50 (DMS 114 small cell lung): 17.9 µM; GI50 (KM20L2 colon): 5.76 µM; GI50 (XF 498 CNS): 13.8 µM; TGI (XF 498 CNS): 36.2 µM
CN=C1SC(=Nc2ccc(N(C)C)cc2)N1C	60.3										TGI (HOP-18 NSCLC): > 100 µM
CN(C)C(=O)O[C@@H]1CN[C@@H](C#Cc2cc3ncnc(Nc4ccc(OCc5cccc(F)c5)c(Cl)c4)c3s2)C1			11.2	> 25 µM	> 25	> 25 µM	> 25 µM	> 25 µM	> 25	> 25 µM	
Oc1ccccc1-c1nc2c3ccccc3c3ccccc3c2[nH]1			1.89	12.8 µM	8.43	25.6 µM	1.99 µM	13.4 µM	6.23	18.7 µM	
COC(=O)c1c(-c2ccccc2)sc(-c2cccc3ccccc23)c1C(=O)OC		> 100									TGI (HOP-18 NSCLC): > 100 µM
CNC(=S)N/N=C/c1ccc([N+](=O)[O-])s1				> 10 µM		> 10 µM				> 10 µM	
CCC(c1cccc(O)c1)C(CC)c1cccc(O)c1 (stereo not drawn)			3.54	17.1 µM	3.53	14.1 µM	1.62 µM	8.04 µM	2.15	6.44 µM	
COc1cc(Cn2c(-c3nonc3N)nc3ccccc32)ccc1C			0.574	> 100 µM	0.362	> 37.4 µM	0.348 µM	> 100 µM	0.168	0.642 µM	
CCOc1ccccc1NC(=O)CCc1nc(=S)[nH][nH]1	> 100										TGI (HOP-18 NSCLC): > 100 µM
CCN(CC)CCCC(C)Nc1c2ccc(C)cc2nc2ccc(OC)cc12 (stereo not drawn)			11.8	33.9 µM	4.03	22.7 µM	0.837 µM	11.1 µM	1.6	3.38 µM	
Cc1ccc2c(c1)C(c1cccc3ccccc13)OC2=O (stereo not drawn)	> 100	> 100									TGI (HOP-18 NSCLC): > 100 µM

SMILES	TGI (DMS 114 small cell lung) [µM]	TGI (KM20L2 colon) [µM]	GI50 (T-47D breast) [µM]	TGI (T-47D breast)	GI50 (NCI/ADR-RES ovarian) [µM]	TGI (NCI/ADR-RES ovarian)	GI50 (MCF7 breast)	TGI (MCF7 breast)	GI50 (MDA-MB-435) [µM]	TGI (MDA-MB-435)	other results
O=C1CC(=O)OC(c2ccc([N+](=O)[O-])cc2)O1			1.93	4.1 µM	3.19	14.1 µM	1.59 µM	3.84 µM	2.59	8.62 µM	
O=C1C2Cc3ccccc3CN2C(=O)N1CCN1CCCC1 (stereo not drawn)	> 100	> 100									TGI (XF 498 CNS): > 100 µM
Cc1c2cc[n+](C)cc2c(C)c2c1[nH]c1ccc(O)c(OCC(F)(F)F)c12	8.04	> 55									TGI (XF 498 CNS): 10.6 µM
O=[N+]([O-])c1ccc2c(c1)[O][Sn]([I])([I])[O]2	> 100	> 100									GI50 (DMS 114 small cell lung): > 100 µM; GI50 (KM20L2 colon): > 100 µM
Cc1c(Cl)cccc1NC(=O)CC1C(=O)Nc2ccccc2S1(=O)=O (stereo not drawn)	44.9	44.9									TGI (XF 498 CNS): 30 µM
CCN(CC)CCNc1n[n+]([O-])c2ccccc2[n+]1[O-]				36.4 µM and 27.5 µM		85.6 µM and > 100 µM	5.43 µM and 2.55 µM	37.6 µM and 26.2 µM		50 µM and > 100 µM	
Cc1cc(-c2nnc3n2CCCCC3)c(C)n1-c1ccc(Cl)c(Cl)c1			6.03	30.8 µM	11.9	47.8 µM	4.89 µM	20.2 µM	10.3	26.9 µM	
O=C1c2ccccc2-n2c1nc1ccccc1c2=O				87.4 µM		> 100 µM		25.2 µM		3.44 µM	
Fc1cccc(Cl)c1/C=N\N=C1c2ccccc2-c2ccccc21				> 100 µM		> 100 µM		> 100 µM		> 100 µM	
CC(C)[C@H]1C(=O)N[C@@H](CCCN=C(N)N)C(=O)NCC(=O)N[C@@H](CC(=O)O)C(=O)N[C@H](Cc2ccccc2)C(=O)N1C			2.87	> 29.4 µM	> 100	> 100 µM	1.4 µM	3.32 µM	0.289	0.895 µM	
O=C(O)CSc1ncccc1[N+](=O)[O-]				> 100 µM		> 100 µM		> 100 µM		> 100 µM	
CCOC(=O)[C@H]1Nc2ccc(OC)cc2C2c3ccccc3CC21 (stereo partly drawn)	> 100	> 100									TGI (XF 498 CNS): > 100 µM
N#C[C@@H]1C(n2ccc(N)nc2=O)O[C@H](CO)[C@H]1O (stereo partly drawn)			> 100	> 100 µM	12.9	> 100 µM	0.993 µM	> 100 µM	> 73	> 100 µM	
CCN1CSC(=S)N(CC)C1				> 100 µM		> 100 µM		> 100 µM		> 100 µM	
C1=CC=C2NCCOCCNC3=CC=CC=CC3=NCCOCCN=C2C=C1	> 100	79.3									TGI (HOP-18 NSCLC): > 100 µM
CC(C)(C)NC(=O)[C@H]1C[C@H]2CCCC[C@H]2CN1C[C@@H](O)[C@H](Cc1ccccc1)NC(=O)[C@H](CC(N)=O)NC(=O)c1ccc2ccccc2n1			13.8	40.9 µM	19.4	44.3 µM	19.1 µM	43.5 µM	11.9	32.8 µM	
N.N.N.N.N.N.O=N[O-].[Br-].[Co+3].[Co+3].[OH3+].[OH3+]											GI50 (HOP-18 NSCLC): 51.7 µM; TGI (HOP-18 NSCLC): > 100 µM
